Reference: article PMC5803145, “Study on the Structural Effect of Maltoligosaccharides on Cytochrome c Complexes Stabilities by Native Mass Spectrometry” (Natural Products and Bioprospecting, 2018)

molecular target: T1, Cytochrome c (Cyt c) from equine / horse heart (Equus caballus, UniProt P00004); test: native ESI-MS, deconvoluted peak ratios; assay type: binding; settings: aqueous solution, 0.5 uM Cyt c, 3-7 uM ligand, room temperature, 1 h; stepwise constant of the 1:1 complex
T1 construct: gene CYCS; mature heme-containing protein
T1 sequence (P00004 2-105): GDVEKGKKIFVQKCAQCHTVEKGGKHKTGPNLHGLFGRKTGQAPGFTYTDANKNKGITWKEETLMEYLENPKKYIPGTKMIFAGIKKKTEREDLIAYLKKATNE
From the text: native ESI-MS, deconvoluted peak ratios on Cytochrome c (Cyt c) from equine / horse heart

| Compound | Ka,1 (10^4 L mol^-1) |
| --- | --- |
| OC[C@H]1O[C@H](O[C@H]2[C@H](O)[C@@H](O)C(O)O[C@@H]2CO)[C@H](O)[C@@H](O)[C@@H]1O (stereo partly drawn) [Mal II, maltose] | 3.227 x 10^4 (RSD 2.9%) |
| OC[C@H]1O[C@H](O[C@H]2[C@H](O)[C@@H](O)[C@@H](O[C@H]3[C@H](O)[C@@H](O)[C@@H](O[C@H]4[C@H](O)[C@@H](O)C(O)O[C@@H]4CO)O[C@@H]3CO)O[C@@H]2CO)[C@H](O)[C@@H](O)[C@@H]1O (stereo partly drawn) [Mal IV, maltotetraose] | 3.279 x 10^4 (RSD 5.6%) |
| OC[C@H]1O[C@H](O[C@H]2[C@H](O)[C@@H](O)[C@@H](O[C@H]3[C@H](O)[C@@H](O)[C@@H](O[C@H]4[C@H](O)[C@@H](O)[C@@H](O[C@H]5[C@H](O)[C@@H](O)C(O)O[C@@H]5CO)O[C@@H]4CO)O[C@@H]3CO)O[C@@H]2CO)[C@H](O)[C@@H](O)[C@@H]1O (stereo partly drawn) [Mal V, maltopentaose] | 2.654 x 10^4 (RSD 0.80%) |
| OC[C@H]1O[C@H](O[C@H]2[C@H](O)[C@@H](O)[C@@H](O[C@H]3[C@H](O)[C@@H](O)[C@@H](O[C@H]4[C@H](O)[C@@H](O)[C@@H](O[C@H]5[C@H](O)[C@@H](O)[C@@H](O[C@H]6[C@H](O)[C@@H](O)[C@@H](O[C@H]7[C@H](O)[C@@H](O)C(O)O[C@@H]7CO)O[C@@H]6CO)O[C@@H]5CO)O[C@@H]4CO)O[C@@H]3CO)O[C@@H]2CO)[C@H](O)[C@@H](O)[C@@H]1O (stereo partly drawn) [Mal VII, maltoheptaose] | 2.205 x 10^4 (RSD 1.6%) |

Now from value to compound:

| Ka,1 (10^4 L mol^-1) | Compound |
| --- | --- |
| 3.842 x 10^4 (RSD 2.5%) | OC[C@H]1O[C@H](O[C@H]2[C@H](O)[C@@H](O)[C@@H](O[C@H]3[C@H](O)[C@@H](O)C(O)O[C@@H]3CO)O[C@@H]2CO)[C@H](O)[C@@H](O)[C@@H]1O (stereo partly drawn) [Mal III, maltotriose] |
| 2.438 x 10^4 (RSD 2.5%) | OC[C@H]1O[C@H](O[C@H]2[C@H](O)[C@@H](O)[C@@H](O[C@H]3[C@H](O)[C@@H](O)[C@@H](O[C@H]4[C@H](O)[C@@H](O)[C@@H](O[C@H]5[C@H](O)[C@@H](O)[C@@H](O[C@H]6[C@H](O)[C@@H](O)C(O)O[C@@H]6CO)O[C@@H]5CO)O[C@@H]4CO)O[C@@H]3CO)O[C@@H]2CO)[C@H](O)[C@@H](O)[C@@H]1O (stereo partly drawn) [Mal VI, maltohexaose] |
